From ChEMBL document CHEMBL4431314, “Computer-aided drug design guided by hydrogen/deuterium exchange mass spectrometry: A powerful combination for the development of potent and selective inhibitors of Group VIA calcium-independent phospholipase A2” (Bioorg Med Chem, 2016) come the findings set out here.

A word on the inhibition: it is the drop in the measured response relative to a control, in per cent.

The target of test [1] is T1, 85/88 kDa calcium-independent phospholipase A2 (Homo sapiens) (UniProt O60733).
T1 sequence (whole entry): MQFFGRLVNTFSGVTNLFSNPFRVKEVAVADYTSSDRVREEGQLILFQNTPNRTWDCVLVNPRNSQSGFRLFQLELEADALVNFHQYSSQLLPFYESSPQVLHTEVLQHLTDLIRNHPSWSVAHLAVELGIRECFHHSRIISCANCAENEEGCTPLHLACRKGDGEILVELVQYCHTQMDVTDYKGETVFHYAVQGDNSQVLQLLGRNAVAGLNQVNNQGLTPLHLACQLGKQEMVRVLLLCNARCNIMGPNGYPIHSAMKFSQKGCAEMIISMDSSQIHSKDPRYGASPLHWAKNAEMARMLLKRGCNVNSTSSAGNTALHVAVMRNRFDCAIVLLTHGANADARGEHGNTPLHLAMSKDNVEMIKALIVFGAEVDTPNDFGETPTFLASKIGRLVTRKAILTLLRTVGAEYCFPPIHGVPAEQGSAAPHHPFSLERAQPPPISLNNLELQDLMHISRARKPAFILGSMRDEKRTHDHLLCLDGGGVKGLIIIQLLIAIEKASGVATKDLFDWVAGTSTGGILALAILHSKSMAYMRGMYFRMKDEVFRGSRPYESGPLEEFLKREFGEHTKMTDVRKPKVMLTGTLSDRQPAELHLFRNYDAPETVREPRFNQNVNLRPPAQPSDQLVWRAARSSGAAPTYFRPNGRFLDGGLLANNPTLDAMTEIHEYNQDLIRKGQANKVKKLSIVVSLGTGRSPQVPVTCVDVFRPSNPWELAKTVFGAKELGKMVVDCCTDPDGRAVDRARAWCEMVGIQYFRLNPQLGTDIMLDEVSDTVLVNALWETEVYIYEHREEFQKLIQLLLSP
The experiment in a line: Inhibition of N-terminal 6xHis-tag human group VIA calcium-independent PLA2 expressed in fall armyworm sf9 cells at 0.091 mol fraction using PAPC/arachidonyl-1-14C PAPC as substrate by mixed micelle modified Dole assay.

Test [2] deals with T1, 85/88 kDa calcium-independent phospholipase A2 (Homo sapiens). Description: Binding affinity to Group VIA calcium-independent PLA2 (unknown origin) (542 to 562 residues) assessed as change in average deuteration level preincubated for 30 mins followed by D2O addition measured after 10 to 10000 secs by DXMS analysis.
Test [3] shares this target. The experiment in a line: Binding affinity to Group VIA calcium-independent PLA2 (unknown origin) (770 to 778 residues) assessed as change in average deuteration level preincubated for 30 mins followed by D2O addition measured after 10 to 10000 secs by DXMS analysis.
The target in test [4] is T2, Cytosolic phospholipase A2 (Homo sapiens) (UniProt P47712).
T2 sequence (whole entry): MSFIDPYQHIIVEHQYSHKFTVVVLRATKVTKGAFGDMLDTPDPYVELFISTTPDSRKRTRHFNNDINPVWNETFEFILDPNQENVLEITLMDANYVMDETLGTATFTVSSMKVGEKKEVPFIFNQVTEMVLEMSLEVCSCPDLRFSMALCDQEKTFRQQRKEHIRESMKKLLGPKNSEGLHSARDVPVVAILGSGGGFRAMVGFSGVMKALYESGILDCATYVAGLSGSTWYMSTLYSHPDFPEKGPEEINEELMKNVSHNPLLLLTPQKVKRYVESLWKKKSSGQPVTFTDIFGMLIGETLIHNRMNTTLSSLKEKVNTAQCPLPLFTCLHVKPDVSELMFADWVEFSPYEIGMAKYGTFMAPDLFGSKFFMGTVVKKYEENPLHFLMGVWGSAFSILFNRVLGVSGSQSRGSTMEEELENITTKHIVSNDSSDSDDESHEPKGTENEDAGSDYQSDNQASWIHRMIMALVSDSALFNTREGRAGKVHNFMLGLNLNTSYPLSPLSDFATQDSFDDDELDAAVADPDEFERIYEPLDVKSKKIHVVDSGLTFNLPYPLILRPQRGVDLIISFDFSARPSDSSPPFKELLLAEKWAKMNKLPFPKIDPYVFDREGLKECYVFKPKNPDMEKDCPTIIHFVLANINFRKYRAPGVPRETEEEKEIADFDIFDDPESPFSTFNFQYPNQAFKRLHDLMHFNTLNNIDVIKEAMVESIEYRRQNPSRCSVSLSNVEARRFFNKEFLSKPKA
Description: Inhibition of C-terminal 6xHis-tagged human group IVA cytosolic PLA2 expressed in fall armyworm sf9 cells at 0.091 mol fraction using PAPC/arachidonyl-1-14C PAPC as substrate by mixed micelle modified Dole assay.

The target of test [5] is T1, 85/88 kDa calcium-independent phospholipase A2 (Homo sapiens). Description: Binding affinity to Group VIA calcium-independent PLA2 (unknown origin) (656 to 664 residues) assessed as change in average deuteration level preincubated for 30 mins followed by D2O addition measured after 10 to 10000 secs by DXMS analysis.
The target is the same in test [6]. Description: Competitive-reversible inhibition of N-terminal 6xHis-tag human group VIA calcium-independent PLA2 expressed in fall armyworm sf9 cells using PAPC/arachidonyl-1-14C PAPC as substrate by mixed micelle modified Dole assay.
The target is the same in test [7]. Description: Binding affinity to Group VIA calcium-independent PLA2 (unknown origin) (718 to 730 residues) assessed as change in average deuteration level preincubated for 30 mins followed by D2O addition measured after 10 to 10000 secs by DXMS analysis.
For test [8] the target is unchanged. Description: Binding affinity to Group VIA calcium-independent PLA2 (unknown origin) (481 to 493 residues) assessed as change in average deuteration level preincubated for 30 mins followed by D2O addition measured after 10 to 10000 secs by DXMS analysis.
Test [9] has the same target. The experiment in a line: Binding affinity to Group VIA calcium-independent PLA2 (unknown origin) (514 to 524 residues) assessed as change in average deuteration level preincubated for 30 mins followed by D2O addition measured after 10 to 10000 secs by DXMS analysis.
The target is the same in test [10]. Description: Binding affinity to Group VIA calcium-independent PLA2 (unknown origin) (630 to 655 residues) assessed as change in average deuteration level preincubated for 30 mins followed by D2O addition measured after 10 to 10000 secs by DXMS analysis.
The species named for a further test is Homo sapiens. The experiment in a line: Inhibition of His-tagged human group V human secretory PLA2 expressed in Escherichia coli BL21 cells at 0.091 mol fraction using PAPC/arachidonyl-1-14C PAPC as substrate by mixed micelle modified Dole assay.
Test [11] concerns the target T1, 85/88 kDa calcium-independent phospholipase A2 (Homo sapiens). Description: Inhibition of N-terminal 6xHis-tag human group VIA calcium-independent PLA2 expressed in fall armyworm sf9 cells using PAPC/arachidonyl-1-14C PAPC as substrate by mixed micelle modified Dole assay.
The target in test [12] is T2, Cytosolic phospholipase A2 (Homo sapiens). The experiment in a line: Inhibition of C-terminal 6xHis-tagged human group IVA cytosolic PLA2 expressed in fall armyworm sf9 cells using PAPC/arachidonyl-1-14C PAPC as substrate by mixed micelle modified Dole assay.

Regarding `CCCCCCCCSCC(=O)C(F)(F)F`, the inhibition in test [1] amounted to 99%; in [4], 82%; in the test filed under Homo sapiens, 68%. The pXI50 in test [1] was found to be 3.7. The Activity in [2] came to 18%; in test [3], 20%; in test [5], 12%; in [7] it was 13%; in test [8], 16%; in test [9], 13%. In addition, in test [10], the Activity is 12%. Further, the XI50 (mole fraction) in [6] was 0.0002.

As for `CCCCCCS(=O)(=O)CC(O)C(F)(F)F` (stereo not given), the results for the inhibition (in test [1]; in [4]; in the test filed under Homo sapiens) were 15%, 5% and 16%, respectively.

For `O=C(CSc1ccc(Cl)cc1)C(F)(F)F`, the inhibition in test [1] came out at 95%; in test [4], 82%; in the test listed under Homo sapiens, 23%. The pXI50 in [1] worked out at 2. For the same compound, the XI50 (mole fraction) in [11] amounted to 0.011.

As to `CCCCCCCCCCCCS(=O)(=O)CC(O)(O)C(F)(F)F`, the results for the inhibition (in test [1]; in [4]; in the test listed under Homo sapiens) were 52%, 34% and 44%, respectively.

Consider `CCCCCCCCS(=O)(=O)CC(O)C(F)(F)F` (stereo not given), for which the inhibition in [1] was 24%; in test [4], 5%; in the test listed under Homo sapiens, 23%.

For `CCCCCCOCC(O)C(F)(F)F` (stereo not given), the inhibition in [1] was found to be 43%; in [4] it was 58%; in the test listed under Homo sapiens, 35%.

Turning to `COc1ccc(SCC(=O)C(F)(F)F)cc1`, the inhibition in test [1] is 93%; in test [4], 70%; in the test filed under Homo sapiens, 16%. Besides, the pXI50 in [1] worked out at 2. In addition, in test [11], the XI50 (mole fraction) amounted to 0.011.

`CCCCCCSCC(=O)C(F)(F)F`: the inhibition in [1] turned out to be 99%; in test [4], 77%; in the test filed under Homo sapiens, 33%. The pXI50 in [1] stood at 3.3. Besides, the XI50 (mole fraction) in [11] was 0.00052.

With `O=C(CSCCc1ccccc1)C(F)(F)F`, the inhibition in test [1] was 100%; in test [4] it was 92%; in the test filed under Homo sapiens it was 61%. Further, the pXI50 in test [1] is 3.2. In [11], the XI50 (mole fraction) was determined as 0.00059.

For `CCCCCCCCCCSCC(=O)C(F)(F)F`, the inhibition in [1] was found to be 99%; in test [4], 100%; in the test filed under Homo sapiens, 78%. Also, the pXI50 in [1] amounted to 3.4. Moreover, the XI50 (mole fraction) in test [11] came to 0.00041; in test [12] it was 0.008.

For the compound `O=C(C[Se]c1ccccc1)C(F)(F)F`, the inhibition in test [1] was 46%; in test [4], 18%; in the test listed under Homo sapiens it was 44%.

Regarding `O=C(CSc1ccc(Br)cc1)C(F)(F)F`, the results for the inhibition (in test [1]; in test [4]; in the test listed under Homo sapiens) were 97%, 82% and 35%, respectively. Moreover, the pXI50 in test [1] was 2.2. Also, the XI50 (mole fraction) in [11] was determined as 0.0071.

For the compound `CCCCCCCCCCCCSCC(=O)C(F)(F)F`, the figures for the inhibition (in test [1]; in test [4]; in the test listed under Homo sapiens) were 97%, 83% and 87%, respectively. Further, in test [1], the pXI50 was determined as 2.4. Besides, the XI50 (mole fraction) in test [11] was 0.0043.

As for `CCCCCCCCS(=O)(=O)CC(O)(O)C(F)(F)F`, the inhibition in test [1] came out at 82%; in test [4], 19%; in the test filed under Homo sapiens it was 18%.

On to `O=C(CSc1c(Cl)cccc1Cl)C(F)(F)F`, for which the inhibition in [1] was found to be 99%; in test [4], 91%; in the test listed under Homo sapiens it was 43%. Also, in [1], the pXI50 was found to be 2.3. In addition, the XI50 (mole fraction) in test [11] is 0.0049.

As for `O=C(CSc1ccccc1)C(F)(F)F`, the values for the inhibition (in test [1]; in test [4]; in the test filed under Homo sapiens) were 89%, 75% and 27%, respectively.

With `Cc1ccc(SCC(=O)C(F)(F)F)cc1`, the inhibition in test [1] was 95%; in test [4], 61%; in the test filed under Homo sapiens, 18%. In [1], the pXI50 worked out at 2.1. In addition, the XI50 (mole fraction) in [11] was found to be 0.009.

Regarding `CCCCSCC(=O)C(F)(F)F`, the inhibition was 91% in [1], 46% in test [4] and 14% in the test listed under Homo sapiens. Moreover, the pXI50 in test [1] was 1.2. For the same compound, the XI50 (mole fraction) in [11] amounted to 0.07.

Regarding `CCCCCCOCC(=O)C(F)(F)F`, the inhibition in test [1] was 99%; in [4] it was 76%; in the test listed under Homo sapiens it was 35%. Besides, in test [1], the pXI50 came to 2.2. Besides, in test [11], the XI50 (mole fraction) turned out to be 0.006.

Regarding `O=C(CSc1ccc([N+](=O)[O-])cc1)C(F)(F)F`, the results for the inhibition (in test [1]; in test [4]; in the test listed under Homo sapiens) were 52%, 26% and 17%, respectively.

As for `CCCCCCCCCCCCS(=O)(=O)CC(O)C(F)(F)F` (stereo not given), the inhibition amounted to 32% in [1], 2% in test [4] and 80% in the test listed under Homo sapiens.

For `O=C(CSc1ccc(F)cc1)C(F)(F)F`, the figures for the inhibition (in test [1]; in test [4]; in the test listed under Homo sapiens) were 46%, 24% and 14%, respectively.

As for `O=C(CSc1cccc(Cl)c1)C(F)(F)F`, the inhibition in [1] was determined as 98%; in test [4], 91%; in the test listed under Homo sapiens it was 46%. In test [1], the pXI50 came to 2. Further, the XI50 (mole fraction) in test [11] is 0.011.

Take `CCCCCCCCCCCSCC(=O)C(F)(F)F`: the inhibition in test [1] amounted to 98%; in [4], 98%; in the test listed under Homo sapiens it was 73%. The pXI50 in test [1] was found to be 3.2. The figures for the XI50 (mole fraction) in test [11] and in test [12] were 0.0007 and 0.014, respectively.

In the case of `O=C(c1ccc(C2CCCCC2)s1)C(F)(F)F`, the inhibition is 39% in test [1], 60% in test [4] and 66% in the test filed under Homo sapiens.

Regarding `CCCCCCS(=O)(=O)CC(O)(O)C(F)(F)F`, the inhibition in test [1] worked out at 71%; in [4] it was 14%; in the test listed under Homo sapiens it was 0%.
